Entries after “also recorded” stand apart in the source; their conditions may differ.
How the values were obtained:
Format in all cases: in vivo, rat
CCI-ION rats = test system: CCI-ION rats
Method: Rats are anaesthetized with sodium pentobarbital (50 mg/kg i.p.). Unilateral CCI-ION is performed under direct visual control using a Zeiss microscope (10-25×) essentially as described by Vos et al (Vos B P, Strassman A M, Maciewicz R J (1994), J. Neurosci. 14: 2708-2723). Briefly, the head is fixed in a Horsley-Clarke stereotaxic frame and a midline scalp incision is made, exposing skull and nasal bone. The edge of the orbit, formed by the maxillary, frontal, lacrimal, and zygomatic bones, is dissected free. The orbital contents are gently deflected to give access to the infraorbital nerve which is dissected free at its most rostral extent in the orbital cavity, just caudal to the infraorbital foramen. Only 5 mm of the nerve can be freed (Vos et al.), providing the space for placement of two chromic catgut (5-0) ligations tied loosely (with about 2 mm spacing) around it. […] Finally, scalp incision is closed using silk sutures (4-0). In sham-operated rats, the ION is exposed using the […] procedure, but is not ligated.
Mechanical sensitivity is determined with a graded series of eleven von Frey filaments (Bioseb, Bordeaux, France). The filaments produce a bending force of 0.07, 0.16, 0.40, 0.60, 1.00, 2.00, 4.00, 6.00, 8.00, 10.00 and 12.00 g, respectively. The stimuli are applied within the ION territory (vibrissae pad) three times at the nerve-injured side and then at the contralateral side for a total of 6 applications of each filament per rat, always beginning with the filament producing the lowest force. The von Frey filaments are applied at least 3 seconds after the rats returned to their initial resting state. For each session, the complete series of von Frey filaments is tested in increasing force order.
The latter responses represent the highest scores in the rank-ordered response scoring system initially described by Vos et al. The minimal force filament causing at least one among these responses (to at least 2 out of the 3 an each side) allows determination of the mechanical response threshold. The 12.00 g filament is the cut-off threshold (no tissue-injury occurs at this pressing force).
For studying the effects of acute treatment with tapentadol in CCI-ION rats, tapentadol (1 or 10 mg/kg i.p.) or its vehicle (0.9% NaCl i. p.) was injected acutely 14 days after surgery. Sham-operated rats were treated in parallel. Pressure threshold values to trigger nocifensive responses to von Frey filaments application onto the plantar surface of ipsilateral hindpaw were determined at various times after acute injection of tapentadol or saline. Cut-off was fixed at 12 g pressure.
For studying the effects of subchronic treatment with tapentadol in CCI-ION rats, starting on day 16 (Time=D) after surgery, they received i.p. injections of tapentadol (10 mg/kg, twice daily, at 10:00 AM and 6:00 PM) or saline (at the same day times as the drug) for four days. On the following day (day 20 after surgery), both tapentadol- and saline-pretreated CCI-SN rats were i.p. injected with Tapentadol (10 mg/kg; Time=0) and then subjected to von Frey filaments' test applied to ipsilateral hindpaw for determination of pressure threshold values at various times thereafter.
14 days after CCI-ION surgery, rats were injected with reboxetine (10 mg/kg i.p.) or its vehicle (0.9% NaCl) followed, 15 min later, by morphine (3 mg/kg s.c.) or its vehicle (0.9% NaCl) and subjected to von Frey filament tests for the following 4 hours. Sham-operated rats were treated in parallel.

CCI-SN rats = test: Randall-Selitto test in CCI-SN rats; conditions: 10 mg/kg i.p., acute
Method: Rats are anaesthetized with sodium pentobarbital (50 mg/kg i.p.). Unilateral CCI-SN is performed under direct visual control using a Zeiss microscope (10-25×) essentially as described by Bennett and Xie (G. J. Bennett et al., Pain, 33 (1988) 87-107).
Pain is produced by applying increasing pressure (0-450 g/mm^2) with a punch (0.2 mm tip diameter) on the rat's hind paw. The measured value to be determined is the pressure at which either a hindpaw withdrawal response or a vocalisation reaction of the animal occurs.
Tapentadol (10 mg/kg i.p.) or its vehicle (0.9% NaCl i. p.) was injected in CCI-SN rats acutely 14 days after surgery. Pressure threshold values to trigger hindpaw withdrawal (A) or vocalization (B) were determined using the Randall-Selitto test at various times after acute i.p. administration (Time=0) of Tapentadol or saline.
The results are summarized and depicted in FIG. 1 (A and B). Each point is the mean±S.E.M. of 3-4 independent determinations. * P<0.05 compared to pressure threshold values in the same rats before surgery (C on abscissa); Dunnett's test.

[1] = test system: mRNA encoding ATF3, IL-6, BDNF and iNOS; test: Real-time qRT-PCR of mRNA levels in ganglia and central tissues of CCI-SN rats; conditions: subchronic 10 mg/kg i.p. twice daily; ipsilateral DRG and dorsal quadrant of lumbar spinal cord; day 20
Method: Real-time qRT-PCR determinations were made on the 20th day after CCI-SN or sham operation. Saline or Tapentadol was administered at days 16-20 under treatment conditions according to Example 2 (subchronic treatment conditions). Rats were decapitated 4 h after the last injection on day 20, tissues were immediately dissected in the cold (0° C.) and processed for mRNA extraction and quantification as described by Latrémolière et al. (J. Neurosci. 2008, 28, 8489-8501).
mRNA levels are expressed with reference to transcript encoding the […] GaPDH (glyceraldehyde 3-phosphate dehydrogenase). Each bar is the mean±S.E.M. of 4-6 independent determinations.

In the case of CC[C@@H](c1cccc(O)c1)[C@@H](C)CN(C)C [tapentadol, (−)-(1R,2R)-3-(3-dimethylamino-1-ethyl-2-methyl-propyl)-phenol], the “time for pressure threshold values to return to saline level after the maximum” value (CCI-ION rats; 1 mg/kg i.p., acute) is reported as no more than 45 min, the “time over which the increase in pressure threshold developed” value (CCI-ION rats; 1 mg/kg i.p., acute) is reported as 45 min and the “increase in pressure threshold value compared to saline-treated CCI-ION rats” value (CCI-ION rats; 1 mg/kg i.p., acute, two weeks after surgery) is reported as no more than 6 fold. For the same molecule, the “anti-allodynic effect after subchronic pretreatment (sensitization/desensitization)” value (CCI-ION rats; 10 mg/kg i.p. twice daily for four days or saline, then 10 mg/kg i.p.) was “had the same characteristics (amplitude, duration); also recorded: neither in CCI-SN rats nor in those with CCI-ION, any sign of sensitization or desensitization”, the “duration of statistically significant anti-allodynic effect” value (CCI-ION rats; 10 mg/kg i.p., acute) was “more than two hours” and the “pressure threshold values relative to those determined prior to injection” value (CCI-ION rats; 10 mg/kg i.p., acute, 30-60 min after injection) was 15-20 fold. The “duration of the increase in pressure threshold values (hindpaw withdrawal and vocalization)” value (CCI-SN rats; 14 days after surgery) was “at least 60 min”, the “pressure threshold values to trigger vocalization relative to untreated healthy rats” value (CCI-SN rats; first 45 min after administration) was “+20%” and the “pressure threshold values to cause hindpaw withdrawal compared to intact healthy rats before surgery” value (CCI-SN rats; first hour after treatment) was “did not significantly differ from those determined in intact healthy rats”. For the same molecule, the “levels of mRNA encoding ATF3, IL-6, BDNF and iNOS versus saline-treated CCI-SN rats” value [1] was “not significantly different”.

Reference: patent US20190274974A1, “Treatment of Pain Associated with Trigeminal Neuralgia” (priority 2011, published 2019)
